The subject of one data set is Mus musculus. As to conditions: acute, oral, mortality.
For the next data set, the system named is Rattus norvegicus. As to conditions: for NOAEL: reproduction developmental.
The test system of another data set is Cyprinodon variegatus. The settings on record: chronic/long-term; duration: 41 days; mortality.
Another data set concerns Danio rerio. The settings on record: chronic; duration: 148 days.
Another data set relates to Neomysis kadiakensis. As to conditions: chronic/long-term; duration: 28 days; reproduction.
The next data set concerns Colinus virginianus. The settings on record: for LD50: acute, oral, mortality.
The test system of a further data set is Daphnia magna. As to conditions: chronic/long-term; duration: 21 days; reproduction.
The subject of a further data set is Oncorhynchus mykiss. As to conditions: mortality.
The subject of the next data set is Apis mellifera. The settings on record: acute, duration: 96 hours, mortality.
The next data set has as its system Canidae. The settings on record: subchronic; duration: 3 months; oral; gavage; Dog Other; organ weight.
In another data set the test system is Bibionidae. The settings on record: chronic/long-term; duration: 28 days; development.
The next data set has as its system Chironomus tentans. The settings on record: acute; duration: 10 days; mortality.

Where “and” joins values, the source holds several entries; their conditions need not be identical. Equal entries are not always repeated.

In general, NOAEL refers to the highest tested level that showed no adverse finding. For the molecule `N#Cc1ccc(CC(=NNC(=O)Nc2ccc(OC(F)(F)F)cc2)c2cccc(C(F)(F)F)c2)cc1` (mixture of isomers) [Metaflumizone], the LD50 was 101 mg/kg-day in the data set with Mus musculus (duration: 7 days, diet); greater than 5000 mg/kg-day in the data set on Mus musculus; greater than 5000 mg/kg-day in the data set on Rattus norvegicus (acute, oral, mortality); 306 mg/kg-day with Colinus virginianus (diet); greater than 2020 mg/kg-day in the data set with Colinus virginianus; greater than 2020 mg/kg-day in the data set on Anas platyrhynchos (acute, oral, unspecified, mortality). For the same molecule, the LD50 in the data set on Apis mellifera (dermal) stood at 1.65 µg/piece; with Apis mellifera (oral, unspecified), 2.43 µg/piece. For the same molecule, the NOAEL was determined as 40 mg/kg-day in the data set on Rattus norvegicus (body weight), 20 mg/kg-day in the data set on Rattus norvegicus (reproduction) and 6 mg/kg-day with Canidae. In addition, the LC50 with Tagia sp. (acute, duration: 14 days, mortality) is greater than 1000 mg/kg; with Oncorhynchus mykiss (acute, duration: 96 hours), greater than 0.228 µg/mL; in the data set with Chironomus tentans it was 1800 µg/kg. Further, the NOEC with Tagia sp. (chronic/long-term) turned out to be 6.92 mg/kg; in the data set with Cyprinodon variegatus it was 1.15 µg/L; with Danio rerio, 0.015 mg/L; in the data set on Neomysis kadiakensis it was 0.654 µg/L; in the data set on Daphnia magna, 1.47 µg/L; in the data set on Oncorhynchus mykiss (chronic/long-term, duration: 93 days), 1.47 µg/L. In addition, the NOEC with Bibionidae amounted to 2.56 µg/L. Besides, the NOEL was 0.53 mg/kg-day in the data set on Colinus virginianus (reproduction developmental, reproduction); < 4.4 mg/kg-day and 1.8 mg/kg-day with Anas platyrhynchos (reproductive, reproduction).

The values are drawn from EPA's ToxValDB 9.5 (doi:10.2903/j.efsa.2013.3373).
